Some results are limits rather than exact numbers.

Assay [1] has as its target Histamine H2 receptor (Homo sapiens, UniProt P25021). The assay is classed as functional, cell-based.
The target of assay [2] is T1, Thromboxane A2 receptor (Homo sapiens, UniProt P21731).
T1 sequence (P21731 whole entry): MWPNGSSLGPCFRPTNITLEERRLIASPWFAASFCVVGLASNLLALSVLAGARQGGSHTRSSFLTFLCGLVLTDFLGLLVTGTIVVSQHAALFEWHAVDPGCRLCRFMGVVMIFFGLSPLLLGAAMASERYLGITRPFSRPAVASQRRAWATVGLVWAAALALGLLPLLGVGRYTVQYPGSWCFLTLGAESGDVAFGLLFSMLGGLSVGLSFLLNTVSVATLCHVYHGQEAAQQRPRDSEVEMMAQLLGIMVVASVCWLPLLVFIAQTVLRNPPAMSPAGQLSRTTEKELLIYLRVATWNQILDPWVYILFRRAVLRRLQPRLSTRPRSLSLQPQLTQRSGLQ

For assay [3], the target named is Sodium-dependent dopamine transporter (Homo sapiens, UniProt Q01959).
Chain of Sodium-dependent dopamine transporter (Q01959 whole entry): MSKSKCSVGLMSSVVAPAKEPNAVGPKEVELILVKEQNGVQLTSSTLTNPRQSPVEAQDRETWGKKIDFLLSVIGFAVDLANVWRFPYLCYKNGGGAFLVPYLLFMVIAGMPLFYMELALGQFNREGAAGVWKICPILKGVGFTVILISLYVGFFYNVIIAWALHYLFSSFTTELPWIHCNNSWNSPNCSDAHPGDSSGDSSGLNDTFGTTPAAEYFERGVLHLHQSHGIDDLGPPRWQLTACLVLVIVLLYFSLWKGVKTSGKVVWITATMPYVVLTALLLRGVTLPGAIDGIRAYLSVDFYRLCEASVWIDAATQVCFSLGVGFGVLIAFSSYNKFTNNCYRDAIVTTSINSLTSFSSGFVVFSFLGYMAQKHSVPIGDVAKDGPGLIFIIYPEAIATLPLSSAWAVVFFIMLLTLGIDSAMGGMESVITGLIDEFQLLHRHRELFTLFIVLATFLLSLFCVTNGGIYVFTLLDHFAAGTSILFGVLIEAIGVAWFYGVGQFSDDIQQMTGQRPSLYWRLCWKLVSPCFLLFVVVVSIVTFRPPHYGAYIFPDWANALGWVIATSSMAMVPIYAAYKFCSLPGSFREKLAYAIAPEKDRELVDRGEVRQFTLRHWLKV
Assay [4] has as its target T2, Cholecystokinin receptor type A (Homo sapiens, UniProt P32238).
T2 sequence (P32238 whole entry): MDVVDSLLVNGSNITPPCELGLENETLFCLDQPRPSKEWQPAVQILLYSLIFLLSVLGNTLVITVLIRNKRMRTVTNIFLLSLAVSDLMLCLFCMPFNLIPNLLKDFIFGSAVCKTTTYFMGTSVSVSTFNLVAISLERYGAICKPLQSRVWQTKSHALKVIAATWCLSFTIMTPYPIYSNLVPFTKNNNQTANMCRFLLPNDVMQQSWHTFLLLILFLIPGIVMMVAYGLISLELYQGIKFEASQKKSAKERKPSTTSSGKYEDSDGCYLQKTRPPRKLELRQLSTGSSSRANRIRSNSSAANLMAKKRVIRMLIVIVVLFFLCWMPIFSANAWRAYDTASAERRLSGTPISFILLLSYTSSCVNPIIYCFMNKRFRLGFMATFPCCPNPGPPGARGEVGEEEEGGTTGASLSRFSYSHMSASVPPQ

Assay [5] deals with Glutamate receptor ionotropic, NMDA 1 (Rattus norvegicus, UniProt P35439).
Assay [6] has as its target T3, Muscarinic acetylcholine receptor M2 (Homo sapiens, UniProt P08172).
T3 sequence (P08172 whole entry): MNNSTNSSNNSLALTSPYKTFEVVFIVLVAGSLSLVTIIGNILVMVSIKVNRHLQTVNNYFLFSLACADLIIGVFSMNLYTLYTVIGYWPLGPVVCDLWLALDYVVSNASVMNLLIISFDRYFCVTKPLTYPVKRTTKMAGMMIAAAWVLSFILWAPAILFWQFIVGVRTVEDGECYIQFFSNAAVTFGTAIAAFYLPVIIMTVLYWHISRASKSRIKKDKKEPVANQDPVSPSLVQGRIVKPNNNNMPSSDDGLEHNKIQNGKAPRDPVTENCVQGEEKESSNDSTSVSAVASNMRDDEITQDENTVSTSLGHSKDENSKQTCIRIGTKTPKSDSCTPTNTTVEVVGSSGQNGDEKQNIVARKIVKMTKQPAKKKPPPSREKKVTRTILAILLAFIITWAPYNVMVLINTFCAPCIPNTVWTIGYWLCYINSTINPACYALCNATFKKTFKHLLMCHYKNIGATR
The format is functional, cell-based.

Assay [7] concerns the target 3',5'-cyclic-AMP phosphodiesterase 4D (Homo sapiens, UniProt Q08499). The format is functional.
Assay [8] has as its target T4, Alpha-2A adrenergic receptor (Homo sapiens, UniProt P08913).
T4 sequence (P08913 whole entry): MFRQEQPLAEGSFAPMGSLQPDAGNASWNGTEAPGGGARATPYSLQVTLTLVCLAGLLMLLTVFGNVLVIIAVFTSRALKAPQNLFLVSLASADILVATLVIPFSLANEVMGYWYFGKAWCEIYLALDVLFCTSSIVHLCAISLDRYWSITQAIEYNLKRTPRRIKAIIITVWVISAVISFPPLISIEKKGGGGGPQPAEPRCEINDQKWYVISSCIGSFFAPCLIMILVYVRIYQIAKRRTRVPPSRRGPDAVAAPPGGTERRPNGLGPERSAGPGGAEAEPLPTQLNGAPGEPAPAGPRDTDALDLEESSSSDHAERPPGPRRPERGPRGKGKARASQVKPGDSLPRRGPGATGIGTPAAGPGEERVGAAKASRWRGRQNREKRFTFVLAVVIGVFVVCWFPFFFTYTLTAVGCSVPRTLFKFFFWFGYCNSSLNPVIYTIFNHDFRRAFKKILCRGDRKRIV
The assay is classed as functional, cell-based.

The target in assay [9] is Histamine H3 receptor (Homo sapiens, UniProt Q9Y5N1).
Chain of Histamine H3 receptor (Q9Y5N1 whole entry): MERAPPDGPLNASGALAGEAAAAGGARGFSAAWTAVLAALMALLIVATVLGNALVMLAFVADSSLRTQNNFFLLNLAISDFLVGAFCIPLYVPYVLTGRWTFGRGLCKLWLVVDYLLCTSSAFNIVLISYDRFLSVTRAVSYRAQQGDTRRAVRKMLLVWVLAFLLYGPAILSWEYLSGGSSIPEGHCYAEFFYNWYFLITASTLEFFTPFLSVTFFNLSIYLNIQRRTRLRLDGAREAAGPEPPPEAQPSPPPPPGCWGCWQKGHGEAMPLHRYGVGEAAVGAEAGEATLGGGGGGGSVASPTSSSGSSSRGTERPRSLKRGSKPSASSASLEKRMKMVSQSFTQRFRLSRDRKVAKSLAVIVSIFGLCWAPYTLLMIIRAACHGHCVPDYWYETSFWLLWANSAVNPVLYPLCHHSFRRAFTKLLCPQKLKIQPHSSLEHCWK
Assay [10] concerns the target T5, Equilibrative nucleoside transporter 1 (Homo sapiens, UniProt Q99808).
T5 sequence (Q99808 whole entry): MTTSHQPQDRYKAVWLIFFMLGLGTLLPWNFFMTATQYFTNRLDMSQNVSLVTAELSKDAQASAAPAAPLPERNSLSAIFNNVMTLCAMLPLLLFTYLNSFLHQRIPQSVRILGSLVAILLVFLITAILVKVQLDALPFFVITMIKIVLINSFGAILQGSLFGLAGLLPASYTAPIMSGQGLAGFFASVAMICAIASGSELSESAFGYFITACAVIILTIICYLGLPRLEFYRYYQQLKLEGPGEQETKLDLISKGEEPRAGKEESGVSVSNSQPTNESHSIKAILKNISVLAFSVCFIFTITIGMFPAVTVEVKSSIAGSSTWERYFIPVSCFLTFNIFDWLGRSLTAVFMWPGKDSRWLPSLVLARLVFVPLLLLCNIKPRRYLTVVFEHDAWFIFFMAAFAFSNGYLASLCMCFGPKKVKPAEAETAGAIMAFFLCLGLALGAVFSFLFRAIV

Assay [11] addresses T6, Adenosine receptor A3 (Homo sapiens, UniProt P0DMS8).
T6 sequence (P0DMS8 whole entry): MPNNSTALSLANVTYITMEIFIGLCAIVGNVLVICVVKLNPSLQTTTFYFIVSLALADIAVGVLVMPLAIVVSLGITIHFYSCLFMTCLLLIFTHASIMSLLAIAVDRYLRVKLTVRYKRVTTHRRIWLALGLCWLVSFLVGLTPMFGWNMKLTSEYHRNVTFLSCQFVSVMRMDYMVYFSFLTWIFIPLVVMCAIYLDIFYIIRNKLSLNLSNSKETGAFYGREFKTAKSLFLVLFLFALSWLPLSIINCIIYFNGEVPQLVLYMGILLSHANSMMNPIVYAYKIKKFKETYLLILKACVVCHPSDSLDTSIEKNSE
Further: assay procedure not described here.

Chain of Histamine H2 receptor (P25021 whole entry): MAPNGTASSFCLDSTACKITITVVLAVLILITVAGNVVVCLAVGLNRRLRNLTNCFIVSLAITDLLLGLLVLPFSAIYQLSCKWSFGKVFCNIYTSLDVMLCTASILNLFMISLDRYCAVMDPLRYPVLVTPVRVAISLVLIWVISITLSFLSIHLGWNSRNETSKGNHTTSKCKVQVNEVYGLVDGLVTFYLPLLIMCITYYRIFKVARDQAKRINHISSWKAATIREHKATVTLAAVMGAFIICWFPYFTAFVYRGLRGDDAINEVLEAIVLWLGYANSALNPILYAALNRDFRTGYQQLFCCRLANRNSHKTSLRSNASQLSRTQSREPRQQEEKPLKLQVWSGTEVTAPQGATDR
Chain of 3',5'-cyclic-AMP phosphodiesterase 4D (Q08499 whole entry): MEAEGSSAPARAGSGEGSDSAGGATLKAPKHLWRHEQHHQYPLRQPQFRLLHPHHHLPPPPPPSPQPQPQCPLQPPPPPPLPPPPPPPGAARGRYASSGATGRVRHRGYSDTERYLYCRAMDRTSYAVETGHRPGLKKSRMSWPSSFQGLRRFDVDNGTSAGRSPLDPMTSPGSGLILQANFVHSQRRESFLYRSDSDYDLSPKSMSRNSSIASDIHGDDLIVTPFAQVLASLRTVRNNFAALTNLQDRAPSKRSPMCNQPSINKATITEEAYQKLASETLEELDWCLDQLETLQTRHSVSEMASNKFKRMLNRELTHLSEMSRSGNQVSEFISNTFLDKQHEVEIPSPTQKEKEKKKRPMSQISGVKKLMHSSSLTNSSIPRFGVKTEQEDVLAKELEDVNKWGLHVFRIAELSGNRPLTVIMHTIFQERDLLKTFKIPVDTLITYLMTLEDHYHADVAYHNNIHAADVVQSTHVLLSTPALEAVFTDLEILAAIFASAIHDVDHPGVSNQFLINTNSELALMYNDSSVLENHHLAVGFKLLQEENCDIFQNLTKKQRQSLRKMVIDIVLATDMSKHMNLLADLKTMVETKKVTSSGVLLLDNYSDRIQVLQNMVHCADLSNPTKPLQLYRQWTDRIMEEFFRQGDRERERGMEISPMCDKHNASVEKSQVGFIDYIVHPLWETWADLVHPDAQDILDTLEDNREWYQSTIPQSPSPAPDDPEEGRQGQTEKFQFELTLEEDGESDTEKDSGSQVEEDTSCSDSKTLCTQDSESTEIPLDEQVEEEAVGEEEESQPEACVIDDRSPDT

In general, AC50 refers to the concentration at which the activity in the assay is half-maximal. High values mean weaker potency, low ones greater potency. Turning to `Clc1ccc2c(N3CCN(CCCN4CCN(c5ccnc6cc(Cl)ccc56)CC4)CC3)ccnc2c1` [PIPERAQUINE], the AC50 in assay [1], in [2], in [3], in [4], in [5] and in assay [6] was above 30 µM each time. The AC50 in assay [7] is 22 µM; in assay [8] it was above 30 µM; in assay [9], 6.1 µM; in assay [10] it was above 30 µM; in assay [11], above 30 µM.
For `Cc1noc(NS(=O)(=O)c2ccc(N)cc2)c1C` [SULFISOXAZOLE], the AC50 in assay [1], in [2], in assay [3], in [4], in [5] and in assay [6] was above 10 µM in each case. In addition, the AC50 in assay [7] is above 30 µM; in [8] it was above 10 µM; in [9], above 10 µM; in assay [10], above 10 µM; in assay [11], above 10 µM.
On to `CC1(C)S[C@@H]2[C@H](NC(=O)[C@H](N)c3ccccc3)C(=O)N2[C@H]1C(=O)OCOC(=O)[C@@H]1N2C(=O)C[C@H]2S(=O)(=O)C1(C)C` [SULTAMICILLIN], for which the AC50 in [1], in assay [2], in assay [3], in assay [4], in assay [5] and in [6] was above 30 µM throughout. Besides, the concentration at half-maximal activity (AC50) in assay [7], in [8], in [9], in assay [10] and in [11] was above 30 µM each time.
`Clc1ccc(C(Cn2ccnc2)OCc2ccsc2Cl)c(Cl)c1` (configuration not stated) [TIOCONAZOLE]: the concentration at half-maximal activity (AC50) in [1] is above 30 µM; in assay [2], 28.1 µM; in assay [3], 10.6 µM; in assay [4], above 30 µM; in [5], above 30 µM; in [6], above 30 µM. Further, the AC50 was 8.7 µM in assay [7]; above 30 µM in assay [8]; above 30 µM in assay [9]; above 30 µM in assay [10]; 6.43 µM in [11].
For the molecule `CC(C)[C@H](N)C(=O)OCC(CO)OCn1cnc2c(=O)nc(N)[nH]c21` (some centres not stated) [VALGANCICLOVIR], the AC50 in assay [1], in assay [2], in assay [3], in [4], in assay [5] and in assay [6] was above 30 µM in each case. Besides, the AC50 in assay [7], in assay [8], in [9], in assay [10] and in assay [11] was above 30 µM each time.
For the molecule `CCCC(CCC)C(N)=O` [VALPROMIDE], the AC50 was above 10 µM in assay [1]; above 30 µM in assay [2]; above 30 µM in assay [3]; above 30 µM in [4]; above 10 µM in assay [5]; above 10 µM in [6]. The AC50 is above 30 µM in [7]; above 10 µM in assay [8]; above 10 µM in assay [9]; above 30 µM in [10]; above 30 µM in assay [11].
In the case of `CCOC(=O)C1=C[C@]2(CC)CCCN3CCc4c(n1c1ccccc41)[C@@H]32` [VINPOCETINE], the AC50 in [1] is above 30 µM; in assay [2] it was above 30 µM; in assay [3], 21 µM; in [4], above 30 µM; in [5], above 30 µM; in [6] it was 13 µM. In addition, the AC50 was 8.8 µM in assay [7]; 19 µM in [8]; 18 µM in assay [9]; above 30 µM in assay [10]; above 30 µM in assay [11].

Values taken from ChEMBL document CHEMBL5291721, “A preclinical secondary pharmacology resource illuminates target-adverse drug reaction associations of marketed drugs” (Nat Commun, 2023).
